The results in this text go back to ChEMBL document CHEMBL1128137, “A novel series of highly potent 5-lipoxygenase inhibitors; 2-aryldienylbenzoxazoles” (Bioorg Med Chem Lett, 1995).

SMILES strings stand for the structures.

As a reminder, the IC50 is the concentration that gives 50% inhibition. Lower therefore signals higher potency.

The experiment concerns the target T1, Polyunsaturated fatty acid 5-lipoxygenase (Rattus norvegicus, UniProt P12527).
T1 sequence (P12527 whole entry): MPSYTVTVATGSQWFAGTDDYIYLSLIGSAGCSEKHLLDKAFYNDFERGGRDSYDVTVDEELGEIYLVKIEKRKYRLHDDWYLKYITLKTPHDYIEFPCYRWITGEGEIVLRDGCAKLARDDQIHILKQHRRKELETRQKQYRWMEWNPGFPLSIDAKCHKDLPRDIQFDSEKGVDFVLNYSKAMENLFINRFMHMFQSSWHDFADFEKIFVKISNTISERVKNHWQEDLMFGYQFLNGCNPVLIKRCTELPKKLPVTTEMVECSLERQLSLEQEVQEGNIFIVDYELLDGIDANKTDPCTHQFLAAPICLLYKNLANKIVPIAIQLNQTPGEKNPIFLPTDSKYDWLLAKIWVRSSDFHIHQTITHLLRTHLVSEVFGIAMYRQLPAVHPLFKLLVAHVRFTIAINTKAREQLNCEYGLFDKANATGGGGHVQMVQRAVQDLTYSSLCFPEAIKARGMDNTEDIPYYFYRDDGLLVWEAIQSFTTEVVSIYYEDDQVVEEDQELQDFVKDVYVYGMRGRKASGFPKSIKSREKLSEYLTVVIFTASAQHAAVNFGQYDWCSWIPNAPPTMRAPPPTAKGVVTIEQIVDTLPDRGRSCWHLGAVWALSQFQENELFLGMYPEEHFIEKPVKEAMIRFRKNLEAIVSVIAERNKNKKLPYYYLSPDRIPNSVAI
The experiment is described as follows: Inhibition of 5-lipoxygenase of rat basophilic leukemia (RBL) cell cytosolic enzymes. Set-up: species or system RBL-1.
`CCOC(=O)c1ccc2oc(/C=C/C=C/c3ccc(O)c(O)c3)nc2c1` had a 50% inhibitory concentration (IC50) of 20 nM. That is a double-digit nanomolar value.
To `COc1cc(/C=C/C=C/c2nc3cc(Cl)ccc3o2)ccc1O` belongs 380 nM.
On to `COc1cc(/C=C/C=C/c2nc3ccc(CO)cc3o2)ccc1O`, for which the IC50 came out at 300 nM.
`COc1cc(/C=C/C=C/c2nc3ncccc3o2)ccc1O` returned a half-maximal inhibitory concentration (IC50) of 370 nM.
To `CCOC(=O)c1ccc2oc(/C=C/C=C/c3ccc(O)c(OC)c3)nc2c1` belongs 250 nM; to `CCOC(=O)c1ccc2nc(/C=C/C=C/c3ccc(O)c(OC)c3)oc2c1`, 130 nM; to `COc1cc(/C=C/C=C/c2nc3ccccc3o2)ccc1O`, 330 nM.
To `COc1cc(/C=C/C=C/c2nc3cc(C(=O)O)ccc3o2)ccc1O` belongs 5800 nM.
Then `COc1cc(/C=C/C=C/C(=O)NCCN2CCC(OC(c3ccccc3)c3ccccc3)CC2)ccc1O`, with 150 nM; and `COc1cc(/C=C/C=C/c2nc3cc(CO)ccc3o2)ccc1O`, with 260 nM; and `COc1cc(/C=C/C=C/c2nc3cc(C)ccc3o2)ccc1O`, with 290 nM.
Compound `CCOC(=O)/C=C/c1ccc(O)c(O)c1` [ETHYL CAFFEATE] came in with an IC50 of 1150 nM. This IC50 is about 4-fold higher than that of the compound before.
Then `Oc1ccc(/C=C/C=C/c2nc3ccccc3o2)cc1O`, with 30 nM; and `COc1cc(/C=C/C=C/c2nc3c(ccc4ccccc43)o2)ccc1O`, with 170 nM.
